Assay results: EP4596574A1, “GLP-1/GCG/GIP TRIPLE-RECEPTOR AGONIST AND USE THEREOF” (Sunshine Lake Pharma Co., Ltd., priority 2022, dated 2024)
Marks after values point to notes of the source that are not given here.

Tests used:
GLP-1R = biological target: T1, GLP-1R (Homo sapiens, UniProt P43220); experiment: In vitro cell activity, cAMP production in HEK293 cells expressing GLP-1R; format: cell-based
T1 construct: expressed in transfected cells; host or cells: HEK293 (HEK293-GLP-1R)
Outline: (§1)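 Cells were plated at 4×10^5 cells/mL, and detection reagents (cAMP-d2, anti-cAMP cryptate, 1:1) were incubated 1 h at room temperature in the dark or overnight at 4 °C.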

GIPR = biological target: T2, GIPR (Homo sapiens, UniProt P48546); experiment: In vitro cell activity, cAMP production in HEK293 cells expressing GIPR; format: cell-based
T2 construct: expressed in transfected cells; host or cells: HEK293 (HEK293-GIPR)
T2 sequence (P48546 22-466): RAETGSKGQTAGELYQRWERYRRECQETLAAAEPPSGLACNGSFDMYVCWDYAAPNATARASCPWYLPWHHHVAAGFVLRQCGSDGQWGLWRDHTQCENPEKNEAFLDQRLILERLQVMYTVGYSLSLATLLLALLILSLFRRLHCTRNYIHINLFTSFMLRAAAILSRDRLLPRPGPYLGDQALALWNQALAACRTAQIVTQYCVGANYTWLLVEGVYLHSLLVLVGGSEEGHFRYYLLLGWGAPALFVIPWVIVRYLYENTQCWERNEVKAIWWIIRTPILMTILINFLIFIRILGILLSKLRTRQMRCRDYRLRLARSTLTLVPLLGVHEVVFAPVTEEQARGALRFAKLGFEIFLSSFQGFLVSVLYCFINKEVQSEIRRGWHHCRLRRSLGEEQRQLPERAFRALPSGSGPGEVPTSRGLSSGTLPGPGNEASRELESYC
Outline: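 cAMP accumulation is quantified by homogeneous TR-FRET (cAMP-d2 plus anti-cAMP cryptate) in GIPR-expressing HEK293 cells seeded from a 4×10^5 cells/mL suspension and treated with compound. The signal ratio is plotted against concentration and fitted to a four-parameter curve to give EC50.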

GCGR = biological target: T3, GCGR (Homo sapiens, UniProt P47871); experiment: In vitro cell activity, cAMP production in HEK293 cells expressing GCGR; format: cell-based
T3 construct: expressed in transfected cells; host or cells: HEK293 (HEK293-GCGR)
T3 sequence (P47871 26-477, species assumed): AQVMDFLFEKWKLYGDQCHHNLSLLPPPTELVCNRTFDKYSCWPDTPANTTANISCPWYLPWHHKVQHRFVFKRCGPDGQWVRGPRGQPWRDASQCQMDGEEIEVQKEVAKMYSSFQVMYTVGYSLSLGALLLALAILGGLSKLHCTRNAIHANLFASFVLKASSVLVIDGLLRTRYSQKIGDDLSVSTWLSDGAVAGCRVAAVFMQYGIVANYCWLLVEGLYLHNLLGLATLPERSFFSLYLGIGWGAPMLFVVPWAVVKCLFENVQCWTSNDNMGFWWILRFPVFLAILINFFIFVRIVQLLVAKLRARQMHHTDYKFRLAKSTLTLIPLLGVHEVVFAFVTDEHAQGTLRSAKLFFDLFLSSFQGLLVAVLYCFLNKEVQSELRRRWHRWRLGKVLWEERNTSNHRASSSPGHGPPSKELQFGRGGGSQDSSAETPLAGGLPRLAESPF
Outline: as §1

[1] = Glucose tolerance assessment in normal C57BL/6 mice (Example 4); format: in vivo; conditions: for Blood glucose level (mM) 15 min / Blood glucose level (mM) 30 min / Blood glucose level (mM) 60 min / Blood glucose level (mM) 90 min / Blood glucose level (mM) 0 min / AUC0-90 min: 3 nmol/kg s.c. single dose, 24 h after administration; for Blood glucose level (mM) 15 min: 15 min after 2 g/kg glucose i.p.; for Blood glucose level (mM) 30 min: 30 min after 2 g/kg glucose i.p.; for Blood glucose level (mM) 60 min: 60 min after 2 g/kg glucose i.p.; for Blood glucose level (mM) 90 min: 90 min after 2 g/kg glucose i.p.; for Blood glucose level (mM) 0 min: basal before 2 g/kg glucose i.p.; for AUC0-90 min: blood glucose AUC, 2 g/kg glucose i.p.
Protocol: (§2) Twelve hours after the single administration, the animals were fasted for 12 hours and had free access to water. Blood was collected from the tail vein to determine the basal blood glucose level of each group of animals, and then 2 g/kg glucose solution was injected intraperitoneally. Blood glucose was tested at 15, 30, 60, and 90 min after glucose administration. The blood glucose concentration-time curve was drawn according to the blood glucose values measured at different time points, and the AUC0~90min of each dose group was calculated as shown in Table 4 and Figure 1. Table 4: Effects of single administration of HEC-PT74, HEC-PT75, HEC-PT77, HEC-PT78, HEC-PT80, and HEC-PT82 on glucose tolerance in normal C57 mice 24 h after administration

[2] = In vivo efficacy evaluation in db/db mouse model (blood glucose); design: species or system db/db mice
Protocol: Blood glucose was tested before each administration.

[3] = Glucose tolerance assessment in normal C57BL/6 mice (Example 5); format: in vivo; conditions: 3 nmol/kg s.c. single dose, 24 h after administration
Protocol: as §2, with “Table 5” for “Table 4”, “Figure 2.” for “Figure 1.”, “Table 5:” for “Table 4:”, “of HEC-PT86, HEC-PT96, HEC-PT112, HEC-PT113, HEC-PT114,” for “of HEC-PT74, HEC-PT75, HEC-PT77, HEC-PT78, HEC-PT80,”, “and HEC-PT119” for “and HEC-PT82”

T1 sequence (P43220 24-463, species assumed): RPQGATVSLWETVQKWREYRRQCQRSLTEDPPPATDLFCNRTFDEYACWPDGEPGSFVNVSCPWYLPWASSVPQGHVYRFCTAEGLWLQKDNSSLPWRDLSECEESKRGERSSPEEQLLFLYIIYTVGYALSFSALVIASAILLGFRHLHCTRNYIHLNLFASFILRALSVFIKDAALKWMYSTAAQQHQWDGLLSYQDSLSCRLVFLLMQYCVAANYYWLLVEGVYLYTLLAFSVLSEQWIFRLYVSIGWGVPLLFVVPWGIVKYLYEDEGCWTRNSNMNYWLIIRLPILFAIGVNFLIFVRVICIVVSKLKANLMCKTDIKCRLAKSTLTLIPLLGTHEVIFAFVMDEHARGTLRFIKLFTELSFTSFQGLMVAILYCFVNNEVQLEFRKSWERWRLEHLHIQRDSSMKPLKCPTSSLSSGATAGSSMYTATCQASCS

SMILES: CC[C@H](C)[C@H](NC(=O)[C@H](Cc1ccccc1)NC(=O)[C@H](CCC(=O)O)NC(=O)[C@H](CCCNC(=N)N)NC(=O)[C@H](CCC(N)=O)NC(=O)[C@H](C)NC(=O)[C@H](CCCCNC(=O)COCCOCCNC(=O)CC[C@H](NC(=O)CCCCCCCCCCCCCCCCC(=O)O)C(=O)O)NC(=O)[C@H](CCC(=O)O)NC(=O)[C@H](CC(=O)O)NC(=O)[C@H](CC(C)C)NC(=O)[C@H](CC(C)C)NC(=O)[C@@H](NC(=O)[C@H](CO)NC(=O)[C@H](Cc1ccc(O)cc1)NC(=O)[C@H](CC(=O)O)NC(=O)[C@H](CO)NC(=O)[C@@H](NC(=O)[C@](C)(Cc1ccccc1F)NC(=O)[C@@H](NC(=O)CNC(=O)[C@H](Cc1c[nH]cn1)NC(=O)C(C)(C)NC(=O)[C@@H](N)Cc1ccc(O)cc1)[C@@H](C)O)[C@@H](C)O)[C@@H](C)CC)C(=O)N[C@@H](CCC(=O)O)C(=O)N[C@@H](Cc1c[nH]c2ccccc12)C(=O)N[C@@H](CC(C)C)C(=O)N[C@@H](CC(C)C)C(=O)N[C@@H](C)C(=O)NCC(=O)NCC(=O)N1CCC[C@H]1C(=O)N[C@@H](CO)C(=O)N[C@@H](CO)C(=O)NCC(=O)N[C@@H](C)C(=O)N1CCC[C@H]1C(=O)N1CCC[C@H]1C(=O)N1CCC[C@H]1C(=O)N[C@@H](CO)C(=O)O [HEC-PT74]
- EC50 (GLP-1R): 104 pM
- EC50 (GIPR): 4.3 pM
- EC50 (GCGR): 319 pM
- Blood glucose level (mM) 15 min [1]: 14.0 ± 4.3 mM
- Blood glucose level (mM) 30 min [1]: 10.0 ± 3.1 mM
- Blood glucose level (mM) 60 min [1]: 8.4 ± 2.5 mM
- Blood glucose level (mM) 90 min [1]: 7.1 ± 2.3 mM
- Blood glucose level (mM) 0 min [1]: 4.6 ± 1.0 mM
- AUC0-90 min [1]: 827.3±234.6^a
- blood glucose after administration ([2]; db/db mice, 10 nmol/kg): significantly reduce blood glucose
- Random blood glucose (mM) D0 ([2]; db/db mice, 10 nmol/kg s.c. once every three days, D0 (before first dose)): 25.5 ± 4.7 mM
- Random blood glucose (mM) D3 ([2]; db/db mice, 10 nmol/kg s.c. once every three days, D3): 13.5 ± 4.4 mM
- Random blood glucose (mM) D4 ([2]; db/db mice, 10 nmol/kg s.c. once every three days, D4): 20.0 ± 2.9 mM
- Random blood glucose (mM) D5 ([2]; db/db mice, 10 nmol/kg s.c. once every three days, D5): 22.1 ± 3.9 mM
- Random blood glucose (mM) D6 ([2]; db/db mice, 10 nmol/kg s.c. once every three days, D6): 21.1 ± 3.0 mM
- Random blood glucose (mM) D7 ([2]; db/db mice, 10 nmol/kg s.c. once every three days, D7): 22.7 ± 2.9 mM
- Random blood glucose (mM) D10 ([2]; db/db mice, 10 nmol/kg s.c. once every three days, D10): 12.1 ± 2.1 mM
- Random blood glucose (mM) D13 ([2]; db/db mice, 10 nmol/kg s.c. once every three days, D13): 12.5 ± 2.7 mM
- Random blood glucose (mM) D16 ([2]; db/db mice, 10 nmol/kg s.c. once every three days, D16): 12.1 ± 2.9 mM
- Random blood glucose (mM) D19 ([2]; db/db mice, 10 nmol/kg s.c. once every three days, D19): 16.0 ± 2.3 mM
- Random blood glucose (mM) D22 ([2]; db/db mice, 10 nmol/kg s.c. once every three days, D22): 13.9 ± 3.2 mM
- Random blood glucose (mM) D25 ([2]; db/db mice, 10 nmol/kg s.c. once every three days, D25): 16.3±4.2^a mM
- Random blood glucose (mM) 6 h ([2]; db/db mice, 10 nmol/kg s.c., 6 h): 16.7 ± 5.1 mM
- Random blood glucose (mM) 24 h ([2]; db/db mice, 10 nmol/kg s.c., 24 h): 7.3 ± 1.6 mM
- Random blood glucose (mM) 48 h ([2]; db/db mice, 10 nmol/kg s.c., 48 h): 9.2 ± 2.9 mM
- time at which blood glucose levels reached the lowest level ([2]; db/db mice, 10 nmol/kg, after administration): about 24 hours
- blood glucose lowering after long-term administration compared with LY3298176 ([2]; db/db mice, long-term repeated administration): not inferior to the positive control LY3298176
- blood glucose reducing effect after administration compared with LY3298176 ([2]; db/db mice, same dose 10 nmol/kg): slightly better than the positive control LY3298176
- blood glucose level after long-term administration ([2]; type II diabetes model db/db mice): significantly improve the blood glucose level

SMILES: CC[C@H](C)[C@H](NC(=O)[C@H](Cc1ccccc1)NC(=O)[C@H](CCC(=O)O)NC(=O)[C@H](CCC(N)=O)NC(=O)[C@H](CCC(N)=O)NC(=O)[C@H](C)NC(=O)[C@H](CCCCNC(=O)COCCOCCNC(=O)CC[C@H](NC(=O)CCCCCCCCCCCCCCCCC(=O)O)C(=O)O)NC(=O)[C@H](CCC(=O)O)NC(=O)[C@H](CC(=O)O)NC(=O)[C@H](CC(C)C)NC(=O)[C@H](CC(C)C)NC(=O)[C@@H](NC(=O)[C@H](CO)NC(=O)[C@H](Cc1ccc(O)cc1)NC(=O)[C@H](CC(=O)O)NC(=O)[C@H](CO)NC(=O)[C@@H](NC(=O)[C@](C)(Cc1ccccc1F)NC(=O)[C@@H](NC(=O)CNC(=O)[C@H](Cc1c[nH]cn1)NC(=O)C(C)(C)NC(=O)[C@@H](N)Cc1ccc(O)cc1)[C@@H](C)O)[C@@H](C)O)[C@@H](C)CC)C(=O)N[C@@H](CCC(=O)O)C(=O)N[C@@H](Cc1c[nH]c2ccccc12)C(=O)N[C@@H](CC(C)C)C(=O)N[C@@H](CC(C)C)C(=O)N[C@@H](C)C(=O)NCC(=O)NCC(=O)N1CCC[C@H]1C(=O)N[C@@H](CO)C(=O)N[C@@H](CO)C(=O)NCC(=O)N[C@@H](C)C(=O)N1CCC[C@H]1C(=O)N1CCC[C@H]1C(=O)N1CCC[C@H]1C(=O)N[C@@H](CO)C(=O)O [HEC-PT80]
- EC50 (GLP-1R): 341 pM
- EC50 (GIPR): 50.6 pM
- EC50 (GCGR): 1270 pM
- Blood glucose level (mM) 15 min [1]: 11.1 ± 2.0 mM
- Blood glucose level (mM) 30 min [1]: 9.3 ± 1.7 mM
- Blood glucose level (mM) 60 min [1]: 7.2 ± 1.0 mM
- Blood glucose level (mM) 90 min [1]: 5.5 ± 0.5 mM
- Blood glucose level (mM) 0 min [1]: 4.6 ± 1.1 mM
- improvement of glucose tolerance compared with LY3298176 ([1]; 24 hours after a single administration, 3 nmol/kg): more effective in improving glucose tolerance than the positive control LY3298176
- AUC0-90 min [1]: 707.6±98.4^a

SMILES: CC[C@H](C)[C@H](NC(=O)[C@H](CCCCN)NC(=O)[C@H](CC(=O)O)NC(=O)[C@H](CCCCNC(=O)COCCOCCNC(=O)CC[C@H](NC(=O)CCCCCCCCCCCCCCCCC(=O)O)C(=O)O)NC(=O)[C@H](CC(C)C)NC(=O)[C@@H](NC(=O)[C@H](CO)NC(=O)[C@H](Cc1ccc(O)cc1)NC(=O)[C@H](CC(=O)O)NC(=O)[C@H](CO)NC(=O)[C@@H](NC(=O)[C@](C)(Cc1ccccc1F)NC(=O)[C@@H](NC(=O)CNC(=O)[C@H](CCC(N)=O)NC(=O)C(C)(C)NC(=O)[C@@H](N)Cc1ccc(O)cc1)[C@@H](C)O)[C@@H](C)O)[C@@H](C)CC)C(=O)N[C@@H](C)C(=O)N[C@@H](CCC(N)=O)C(=O)NC(C)(C)C(=O)N[C@@H](C)C(=O)N[C@@H](Cc1ccccc1)C(=O)N[C@H](C(=O)N[C@@H](CCC(=O)O)C(=O)N[C@@H](Cc1ccc(O)cc1)C(=O)N[C@@H](CC(C)C)C(=O)N[C@@H](CC(C)C)C(=O)N[C@@H](CCC(=O)O)C(=O)NCC(=O)NCC(=O)N1CCC[C@H]1C(=O)N[C@@H](CO)C(=O)N[C@@H](CO)C(=O)NCC(=O)N[C@@H](C)C(=O)N1CCC[C@H]1C(=O)N1CCC[C@H]1C(=O)N1CCC[C@H]1C(=O)N[C@@H](CO)C(N)=O)[C@@H](C)CC [HEC-PT114]
- EC50 (GLP-1R): 120 pM
- Blood glucose level (mM) 15 min ([3]; 15 min after 2 g/kg glucose i.p.): 13.5 ± 1.0 mM
- Blood glucose level (mM) 30 min ([3]; 30 min after 2 g/kg glucose i.p.): 9.8 ± 0.8 mM
- Blood glucose level (mM) 60 min ([3]; 60 min after 2 g/kg glucose i.p.): 7.9 ± 0.8 mM
- Blood glucose level (mM) 90 min ([3]; 90 min after 2 g/kg glucose i.p.): 6.3 ± 0.8 mM
- Blood glucose level (mM) 0 min ([3]; basal before 2 g/kg glucose i.p.): 4.9 ± 1.0 mM
- AUC0-90 min ([3]; blood glucose AUC, 2 g/kg glucose i.p.): 791.0±55.3^a
- EC50 (GIPR): 56.7 pM
- EC50 (GCGR): 138 pM
